Biological target: HMG-CoA reductase (Bos taurus)
Assay: Compound was evaluated for inhibitory activity against HMG-CoA reductase in bovine ocular cell preparation

Cn1nnnc1C(/C=C/[C@@H](O)C[C@@H](O)CC(=O)O)=C(c1ccc(F)cc1)c1ccc(F)cc1
IC50: 3000 nM
